Reference: ChEMBL document CHEMBL1156161, “Assessing the trypanocidal potential of natural and semi-synthetic diketopiperazines from two deep water marine-derived fungi” (Bioorg Med Chem, 2010)
In brackets after ≈: the same amount, converted by molar mass.

Assays:
[1] = test system: Trypanosoma brucei brucei; assay: Antitrypanosomal activity against Trypanosoma brucei brucei 427-221a after 40 hrs by bioluminescence assay; type: functional, organism-based; conditions: for IC50 / EC50: Trypanosoma brucei, 427-221a, 40 h
[2] = test system: Trypanosoma brucei brucei; assay: Antitrypanosomal activity against Trypanosoma brucei brucei at 1.25 ug/ml after 40 hrs by bioluminescence assay relative to control; type: functional
[3] = Inhibition of Trypanosoma brucei brucei recombinant cathepsin B assessed after 5 mins by spectrofluorimetry
[4] = test system: HeLa; assay: Cytotoxicity against human HeLa cells; type: functional, cell-based
[5] = test system: Jurkat; assay: Cytotoxicity against human Jurkat cells after 40 hrs bioluminescence assay; type: cell-based
[6] = molecular target: Rhodesain (Trypanosoma brucei rhodesiense, UniProt Q95PM0); assay: Inhibition of […] after 5 mins by spectrofluorimetry
[7] = Selectivity index, ratio of EC50 for HEK293 cells to EC50 for Trypanosoma brucei brucei; type: toxicity, cell-based; conditions: human, read-out: Ratio EC50
[8] = test system: HEK293; assay: Cytotoxicity against HEK293 cells; type: cell-based; conditions: Homo sapiens
[9] = molecular target: Thioredoxin reductase 1, cytoplasmic (Homo sapiens, UniProt Q16881); assay: Inhibition of thioredoxin reductase 1
[10] = test system: A549; assay: Cytotoxicity against human A549 cells; type: functional, cell-based
[11] = Inhibition of Su(var)3-9
[12] = Selectivity index, ratio of IC50 for human Jurkat cells to IC50 for Trypanosoma brucei brucei; type: toxicity, cell-based; conditions: for Ratio IC50: jurkat; for selectivity ratio: Jurkat cells, read-out: Ratio IC50
[13] = test system: MDA-MB-468; assay: Cytotoxicity against human MDA-MB-468 cells; type: functional, cell-based
[14] = test system: MCF7; assay: Cytotoxicity against human MCF7 cells; type: functional, cell-based
[15] = test system: Trypanosoma brucei rhodesiense; assay: Antitrypanosomal activity against Trypanosoma brucei rhodesiense after 40 hrs by bioluminescence assay; type: functional
[16] = Selectivity index, ratio of IC50 for rat L6 cells to IC50 for Trypanosoma brucei brucei
[17] = Induction of mutagenesis in Salmonella Typhimurium assessed as drug level required by Ames assay; type: toxicity; conditions: salmonella enterica subsp. enterica serovar typhimurium
[18] = Induction of mutagenesis in microsomes assessed as drug level required by Ames assay; design: species or system Microsome
[19] = Toxicity in ip dosed mouse; type: organism-based; conditions: in vivo
[20] = test system: Mus musculus; assay: Neurotoxicity in ip dosed Swiss mouse assessed as drug level required for induction of tremor; type: toxicity, organism-based; conditions: in vivo
[21] = Cell cycle arrest in temperature sensitive mouse FT210 cells assessed as accumulation at M phase; type: functional, cell-based
[22] = Inhibition of PAF
[23] = molecular target: Mycothiol S-conjugate amidase (Mycobacterium tuberculosis, UniProt P9WJN1); assay: Inhibition of Mycobacterium tuberculosis mycothiol-S-conjugate amidase
[24] = test system: Globisporangium debaryanum; assay: Antimicrobial activity against Pythium debaryanum; type: functional; conditions: read-out: ED50 (the source's name)
[25] = species on record: Homo sapiens; assay: Induction of apoptosis in human HSC assessed as required active concentration; type: functional
[26] = test system: Macrophomina phaseolina; assay: Antimicrobial activity against Macrophomina phaseolina; type: functional; conditions: read-out: ED50 (the source's name)
[27] = test system: Pythium aphanidermatum; assay: Antimicrobial activity against Pythium aphanidermatum; type: functional; conditions: read-out: ED50 (the source's name)
[28] = test system: Rhizoctonia solani; assay: Antimicrobial activity against Rhizoctonia solani; type: functional; conditions: read-out: ED50 (the source's name)
[29] = test system: Athelia rolfsii; assay: Antimicrobial activity against Sclerotium rolfsii; type: functional; conditions: Agroathelia rolfsii; read-out: ED50 (the source's name)
[30] = Toxicity in ip dosed ddY mouse; type: organism-based; conditions: in vivo
[31] = Inhibition of NADPH oxidase
[32] = test system: Tetrahymena pyriformis; assay: Antiprotozoal activity against Tetrahymena pyriformis; type: functional, organism-based
[33] = Inhibition of chymotrypsin-like activity of 20S proteasome activity
[34] = test system: jurkat; assay: Activation of NF-kappaB in human jurkat cells assessed as active concentration required; type: cell-based
[35] = test system: Plasmodium falciparum; assay: Antiparasitic activity against chloroquine-resistant Plasmodium falciparum K1; type: functional, organism-based
[36] = test system: Macrophage; assay: Immunomodulatory activity in macrophage assessed as inhibition of phagocytosis; type: functional; conditions: read-out: ED50 (the source's name)
[37] = Ciliostatic activity against human respiratory epithelium assessed as required active concentration; type: functional
[38] = Cytotoxicity against rainbow trout RTS11 cells; type: cell-based; conditions: Oncorhynchus mykiss
[39] = test system: HUVEC; assay: Cytotoxicity against HUVEC; type: cell-based; conditions: Homo sapiens
[40] = Cytotoxicity against rainbow trout RTG2 cells; type: cell-based; conditions: Oncorhynchus mykiss
[41] = test system: Macrophomina phaseolina; assay: Antimicrobial activity against Rhizoctonia bataticola; type: functional; conditions: read-out: ED50 (the source's name)
[42] = molecular target: Acetolactate synthase catalytic subunit, mitochondrial (Saccharomyces cerevisiae S288c, UniProt P07342); assay: Inhibition of Saccharomyces cerevisiae acetolactate synthase
[43] = Cytotoxicity against chinook salmon CHSE-214 cells; type: cell-based; conditions: Oncorhynchus tshawytscha
[44] = Inhibition of tubulin polymerization assessed as blockade of microtubule assembly at 250 uM; design: scale not given: the % may be the effect or the level left
[45] = Immunosuppression of mouse spleen lymphocytes; type: functional, tissue-based; conditions: lymphocyte

Sequence of Rhodesain (Q95PM0 whole entry): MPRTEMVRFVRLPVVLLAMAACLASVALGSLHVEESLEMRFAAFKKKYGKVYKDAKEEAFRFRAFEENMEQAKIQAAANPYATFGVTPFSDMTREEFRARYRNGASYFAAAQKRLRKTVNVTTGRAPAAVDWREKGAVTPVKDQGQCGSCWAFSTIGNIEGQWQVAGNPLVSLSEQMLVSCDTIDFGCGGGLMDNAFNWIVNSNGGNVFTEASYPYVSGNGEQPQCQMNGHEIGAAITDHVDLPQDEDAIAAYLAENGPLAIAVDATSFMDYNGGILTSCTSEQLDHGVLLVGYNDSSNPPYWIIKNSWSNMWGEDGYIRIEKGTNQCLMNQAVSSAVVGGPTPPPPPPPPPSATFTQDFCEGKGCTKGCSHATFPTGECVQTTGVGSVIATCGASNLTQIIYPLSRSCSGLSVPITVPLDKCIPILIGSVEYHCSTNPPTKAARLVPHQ
Sequence of Mycothiol S-conjugate amidase (P9WJN1 whole entry): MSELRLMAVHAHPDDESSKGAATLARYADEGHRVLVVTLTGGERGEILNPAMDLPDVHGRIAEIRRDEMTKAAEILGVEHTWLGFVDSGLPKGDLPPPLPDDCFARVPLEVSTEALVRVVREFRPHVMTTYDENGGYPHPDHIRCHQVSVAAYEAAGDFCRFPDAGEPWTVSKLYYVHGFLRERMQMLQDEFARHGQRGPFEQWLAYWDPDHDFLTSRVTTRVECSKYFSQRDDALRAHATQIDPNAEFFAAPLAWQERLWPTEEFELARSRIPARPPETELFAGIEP
Sequence of Acetolactate synthase catalytic subunit, mitochondrial (P07342 whole entry): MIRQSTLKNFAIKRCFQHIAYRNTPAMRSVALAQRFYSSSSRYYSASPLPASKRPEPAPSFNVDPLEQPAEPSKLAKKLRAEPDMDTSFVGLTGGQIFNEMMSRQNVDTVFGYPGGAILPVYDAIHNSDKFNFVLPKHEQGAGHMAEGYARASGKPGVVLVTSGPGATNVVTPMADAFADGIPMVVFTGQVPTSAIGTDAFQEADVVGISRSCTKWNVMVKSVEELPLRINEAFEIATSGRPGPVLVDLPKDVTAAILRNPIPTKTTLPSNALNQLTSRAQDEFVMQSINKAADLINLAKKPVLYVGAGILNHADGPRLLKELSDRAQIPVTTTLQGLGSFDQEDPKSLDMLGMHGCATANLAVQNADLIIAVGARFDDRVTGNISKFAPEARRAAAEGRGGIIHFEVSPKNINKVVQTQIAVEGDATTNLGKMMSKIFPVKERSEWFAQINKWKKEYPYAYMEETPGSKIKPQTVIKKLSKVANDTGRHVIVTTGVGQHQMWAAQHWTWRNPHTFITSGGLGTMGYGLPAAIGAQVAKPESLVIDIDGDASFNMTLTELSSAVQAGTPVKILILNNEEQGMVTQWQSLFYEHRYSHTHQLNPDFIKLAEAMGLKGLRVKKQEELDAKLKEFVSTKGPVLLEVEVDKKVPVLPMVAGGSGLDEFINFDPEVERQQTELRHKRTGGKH
Sequence of Thioredoxin reductase 1, cytoplasmic (Q16881 whole entry): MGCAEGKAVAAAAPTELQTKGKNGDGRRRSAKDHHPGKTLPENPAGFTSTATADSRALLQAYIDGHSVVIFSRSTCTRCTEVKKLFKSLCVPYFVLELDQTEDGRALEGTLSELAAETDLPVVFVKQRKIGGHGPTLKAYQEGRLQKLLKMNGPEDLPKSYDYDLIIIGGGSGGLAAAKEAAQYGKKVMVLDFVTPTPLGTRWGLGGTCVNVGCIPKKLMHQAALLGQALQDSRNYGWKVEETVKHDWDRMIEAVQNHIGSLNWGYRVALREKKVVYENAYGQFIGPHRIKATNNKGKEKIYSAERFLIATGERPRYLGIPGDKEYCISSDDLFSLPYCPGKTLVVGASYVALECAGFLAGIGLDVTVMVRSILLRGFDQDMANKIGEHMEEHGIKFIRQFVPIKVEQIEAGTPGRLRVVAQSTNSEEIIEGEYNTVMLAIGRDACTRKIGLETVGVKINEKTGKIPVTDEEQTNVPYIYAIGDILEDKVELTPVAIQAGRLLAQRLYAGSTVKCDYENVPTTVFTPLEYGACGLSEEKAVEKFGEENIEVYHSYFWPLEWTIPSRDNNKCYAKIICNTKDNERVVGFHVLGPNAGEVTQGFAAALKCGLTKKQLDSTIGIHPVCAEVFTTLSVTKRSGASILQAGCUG

C/C(=C\Cc1c(O)c(Cl)c(C)c(C=O)c1O)CC/C=C(\C)[C@@H]1CC(=O)C(C)(C)O1 [ASCOFURANONE]
IC100 [1]: 0.03 µM

COc1ccc2c(c1)N(C)C(=O)[C@@]21C=C2C(=O)N3CCC[C@H]3C(=O)N2[C@H]1C=C(C)C [N-METHYL-6-METHOXYSPIROTRYPROSTATIN B]
IC50 [1]: > 50 µM

CN1C(=O)[C@]23SS[C@@]1(C)C(=O)N2[C@H]1Nc2ccccc2[C@@]1([C@@]12c4ccccc4N[C@@H]1N1C(=O)[C@]4(CO)SS[C@]1(C(=O)N4C)[C@H]2O)[C@@H]3O [VERTICILLIN B]
Activity [2]: 109%
IC50 [3]: > 50 µM
EC50 ([4]; read-out: ED50 (the source's name)): 280 nM
IC50 [1]: 0.007 µM
IC50 [5]: < 0.6 µM
IC50 [6]: > 50 µM

N#Cc1nc(NCc2ccc(Cl)c(Cl)c2)c2ncn(CCCO)c2n1
selectivity ratio [7]: 227
EC50 [1]: 110 nM
EC50 [8]: 25 µM

CN1C(=O)[C@@]23C[C@]4([C@]56C[C@@]78SS[C@@](CO)(C(=O)N7[C@H]5Nc5ccccc56)N(C)C8=O)c5ccccc5N[C@@H]4N2C(=O)[C@]1(CO)SS3 [CHAETOCIN]
IC50 [9]: 4.6 µM
IC50 [3]: > 50 µM
IC50 [10]: < 25 nM
IC50 [1]: 0.002 µM
IC50 [5]: < 0.6 µM
IC50 [11]: 600 nM
IC50 [6]: > 50 µM

CS[C@]1(COC(C)=O)C(=O)N2[C@H]3C(=CC=C[C@@H]3OC(C)=O)C[C@@]2(SC)C(=O)N1C [DIACETYLBIS(METHYLTHIO)GLIOTOXIN]
Ratio IC50 [12]: 1.6 ratio
IC50 [3]: > 50 µM
IC50 [1]: 35.5 µM
IC50 [5]: 56 µM
IC50 [6]: > 50 µM

COc1ccc2c(c1)NC(=O)[C@@]21C[C@H]2C(=O)N3CCC[C@H]3C(=O)N2[C@H]1C=C(C)C [SPIROTRYPROSTATIN A]
IC50 [13]: 110 µM
IC50 [1]: > 50 µM
IC50 [14]: > 300 µM

C/C=C(\C)[C@@H]1C=C[C@@H]2C[C@H](C)C[C@H](C)C2[C@@H]1C(=O)C1=CC(C)(OCCCC)NC1=O (stereo partly specified) [ASCOSALIPYRROLIDINONE A]
MIC [15]: 30 µg/mL (≈ 72.5 µM)

CS[C@]1(COC(C)=O)C(=O)N2[C@H]3C(=CC=C[C@@H]3O)C[C@@]2(SC)C(=O)N1C
IC50 [1]: > 50 µM

Nc1nc(N)nc(Nc2ccc([As]3SCC(CO)S3)cc2)n1 (stereo unspecified) [MELARSOPROL]
selectivity ratio [16]: 1940
IC50 [1]: 0.004 µM

COc1ccc2c(c1)N(C)C(=O)[C@@]21C[C@H]2C(=O)N3CCC[C@H]3C(=O)N2[C@H]1C=C(C)C [N-METHYLSPIROTRYPROSTATIN A]
IC50 [1]: > 50 µM

CS[C@]1(C)NC(=O)[C@](Cc2c[nH]c3ccccc23)(SC)NC1=O [3,6 BISMETHYL(THIOCYCLO)ALANYLTRYPTOPHYL]
IC50 [1]: > 50 µM

CS[C@]1(CO)C(=O)N2[C@H]3C(=CC=C[C@@H]3OC(C)=O)C[C@@]2(SC)C(=O)N1C
Ratio IC50 [12]: 19.2 ratio
IC50 [3]: > 50 µM
IC50 [1]: 6.5 µM
IC50 [5]: 125 µM
IC50 [6]: 12.8 µM

COc1ccc2c3c4n(c2c1)[C@H](C=C(C)C)OOC(C)(C)C[C@@H]4N1C(=O)[C@@H]2CCCN2C(=O)[C@]1(O)[C@H]3O [VERRUCULOGEN]
Activity [17]: 1 µM
selectivity ratio [12]: 7.5
IC50 [3]: > 50 µM
Activity [18]: 1 µM
LD50 [19]: 2.4 mg/kg
Activity [20]: 0.78 mg/kg
IC50 [1]: 12.9 µM
IC50 [5]: 97 µM
IC50 [6]: 45 µM
MIC [21]: 12.2 µM (≈ 6.24 µg/mL)

CN1C(=O)[C@]23CC4=CC=C[C@H](O)[C@H]4N2C(=O)[C@@]1(CO)SS3 [GLIOTOXIN]
IC50 [22]: 93 µM
IC50 [23]: 50 µM
EC50 [24]: 90.1 µM
Activity [25]: 0.3 µM
EC50 [26]: 5.4 µM
EC50 [27]: 36.9 µM
EC50 [28]: 9.75 µM
EC50 [29]: 6.47 µM
IC50 [3]: 0.5 µM
LD50 [30]: 17.9 mg/kg
IC50 [31]: 9 µM
EC50 [32]: 380 nM
IC50 [33]: 10 µM
IC50 [4]: 2450 nM
Activity [34]: 300 nM
IC50 [35]: 3.6 µM
EC50 [36]: 104 nM
IC50 [10]: 3 nM
Activity [37]: 30.7 µM
EC50 [38]: 1350 nM
IC50 [39]: 123 nM
IC50 [1]: 0.01 µM
IC50 [5]: < 1 µM
EC50 [40]: 2000 nM
EC50 [41]: 900 nM
IC50 [42]: 200 nM
IC50 [6]: > 50 µM
EC50 [43]: 1650 nM

CS[C@]1(CO)C(=O)N2c3c(O)cccc3C[C@@]2(SC)C(=O)N1C [DEHYDROBIS(METHYLTHIO)GLIOTOXIN]
IC50 [22]: 16.9 µM
Ratio IC50 [12]: 16.6 ratio
IC50 [3]: > 50 µM
IC50 [1]: 8.5 µM
IC50 [5]: 141 µM
IC50 [6]: 19.5 µM

Cc1ccc(/C(=N\NC(N)=S)c2cc(C(F)(F)F)cc(C(F)(F)F)c2)cc1 [THIOSEMICARBAZONE STANDARD]
selectivity ratio [7]: 19
IC50 [3]: 15 µM
EC50 [1]: 1300 nM
EC50 [8]: 25 µM
IC50 [6]: 0.044 µM

N=C(N)c1ccc(OCCCCCOc2ccc(C(=N)N)cc2)cc1 [PENTAMIDINE]
IC50 [1]: 0.007 µM

COc1ccc2c(c1)NC(=O)[C@@]21C=C2C(=O)N3CCC[C@H]3C(=O)N2[C@H]1C=C(C)C [SPIROTRYPROSTATIN B]
Ratio IC50 [12]: 3.7 ratio
IC50 [3]: > 50 µM
IC50 [1]: 5.7 µM
IC50 [5]: 21.1 µM
IC50 [6]: > 50 µM

COc1ccc2c3c([nH]c2c1)[C@H](C=C(C)C)N1C[C@@H]2CCCN2C[C@@]1(O)[C@H]3O [CYCLOTRYPROSTATIN A]
Activity [44]: 66.4%
IC50 [1]: > 50 µM

CS[C@]1(CO)C(=O)N2[C@H]3C(=CC=C[C@@H]3O)C[C@@]2(SC)C(=O)N1C [BIS(DETHIO)BIS(METHYLTHIO)GLIOTOXIN]
IC50 [22]: 8.4 µM
selectivity ratio [12]: 3.5
IC50 [3]: > 50 µM
LD50 [30]: > 500 mg/kg
IC50 [4]: > 2810 nM
EC50 [36]: > 10000 nM
IC50 [39]: 1120 nM
IC50 [1]: 40.2 µM
IC50 [5]: 140 µM
IC50 [6]: > 50 µM

CS[C@]1(Cc2c[nH]c3ccccc23)NC(=O)[C@](CO)(SC)N(C)C1=O [CHETOSEMINUDIN B]
IC50 [23]: 70 µM
Ratio IC50 [12]: 16.1 ratio
IC50 [3]: > 50 µM
IC50 [1]: 5.9 µM
IC50 [5]: 94.9 µM
IC50 [45]: 24 µM
IC50 [6]: > 50 µM
